Broadly, the AC50 is the concentration at which the activity in the assay is half-maximal. The IC50 is the concentration at which inhibition is half-maximal. As usually defined, the EC50 is the concentration needed to bring the measured effect to its halfway point.

The source made the active and inactive calls.

Here are results for 4 molecules from ChEMBL document CHEMBL1201862, “PubChem BioAssay data set” (2004).

Assay [1] in a line: HEK293T cytotoxicity, dose response, cytotoxicity control for miR-122 modulator project, cell-based, inhibitor set, cherry-pick, set 2 (AID 720697). The assay is classed as functional.
Assay [2] deals with Alkaline phosphatase, placental type (Homo sapiens, UniProt P05187). Description: PLAP enzyme inhibitors, confirmation, biochemical, luminescence (AID 1512). The assay is classed as functional.
The next assay concerns the target Procathepsin L (Homo sapiens, UniProt P07711). Description: cathepsin L inhibitors, dose response, counter-screen for M1/M17 aminopeptidase inhibitor project, biochemical, QFRET, 1536-well (AID 2214). Background: Counterscreens check selectivity or assay interference.
A short description of assay [3]: inhibitors of SNCA 5'UTR-driven reporter translation, confirmation, H4 neuroglioma cells, luminescence (AID 1988). The assay is classed as functional, cell-based.
A further assay has as its target Paired box protein Pax-8 (Homo sapiens, UniProt Q06710). In words: inhibitors of PAX8-driven TPO luciferase reporter, dose response, RMG-I cells, cherry-pick (AID 687027).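 Also: luciferase reporter driven by Pax8 target thyroperoxidase promoter measured by SteadyGlo luminescence.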 The assay is classed as functional, cell-based.
The target in assay [4] is T1, Short transient receptor potential channel 4 (Mus musculus, UniProt Q9QUQ5).
T1 sequence (Q9QUQ5 whole entry): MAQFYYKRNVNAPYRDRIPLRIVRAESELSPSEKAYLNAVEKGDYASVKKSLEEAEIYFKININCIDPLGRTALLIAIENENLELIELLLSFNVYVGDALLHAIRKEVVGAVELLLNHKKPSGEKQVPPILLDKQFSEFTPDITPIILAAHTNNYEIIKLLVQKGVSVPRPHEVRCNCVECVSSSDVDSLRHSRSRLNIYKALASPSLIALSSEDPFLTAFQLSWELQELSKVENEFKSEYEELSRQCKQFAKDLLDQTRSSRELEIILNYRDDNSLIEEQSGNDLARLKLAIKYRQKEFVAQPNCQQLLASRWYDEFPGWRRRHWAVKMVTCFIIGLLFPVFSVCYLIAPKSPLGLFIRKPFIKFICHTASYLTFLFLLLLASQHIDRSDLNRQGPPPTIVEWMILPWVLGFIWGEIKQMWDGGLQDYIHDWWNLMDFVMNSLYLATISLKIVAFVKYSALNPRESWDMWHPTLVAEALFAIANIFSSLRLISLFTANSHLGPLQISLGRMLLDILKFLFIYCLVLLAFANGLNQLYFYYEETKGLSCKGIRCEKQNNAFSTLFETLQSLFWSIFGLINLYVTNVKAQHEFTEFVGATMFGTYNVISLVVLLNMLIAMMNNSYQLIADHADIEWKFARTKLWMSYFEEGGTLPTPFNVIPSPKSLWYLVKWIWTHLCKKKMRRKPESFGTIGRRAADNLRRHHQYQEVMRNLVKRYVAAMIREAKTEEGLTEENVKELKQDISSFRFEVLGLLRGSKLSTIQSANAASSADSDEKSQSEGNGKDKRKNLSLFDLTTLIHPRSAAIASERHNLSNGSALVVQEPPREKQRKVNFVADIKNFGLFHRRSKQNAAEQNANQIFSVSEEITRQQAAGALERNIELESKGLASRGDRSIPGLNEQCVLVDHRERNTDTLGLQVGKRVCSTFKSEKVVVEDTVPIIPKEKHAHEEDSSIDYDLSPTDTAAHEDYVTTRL
In words: mouse TRPC4 channel activators, dose response, cell-based, HEK293 TRPC4/mu-opioid, Fluo-4 calcium (AID 434937). In kind it is functional.

Procathepsin L, sequence (P07711 whole entry): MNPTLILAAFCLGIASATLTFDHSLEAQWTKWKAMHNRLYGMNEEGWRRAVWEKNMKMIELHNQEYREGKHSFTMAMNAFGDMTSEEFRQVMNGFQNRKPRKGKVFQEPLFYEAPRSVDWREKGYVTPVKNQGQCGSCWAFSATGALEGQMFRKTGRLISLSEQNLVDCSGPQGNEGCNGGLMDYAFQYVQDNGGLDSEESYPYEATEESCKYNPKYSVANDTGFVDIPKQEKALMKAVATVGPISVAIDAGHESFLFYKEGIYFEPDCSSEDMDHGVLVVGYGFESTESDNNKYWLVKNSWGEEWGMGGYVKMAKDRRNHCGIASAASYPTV
Paired box protein Pax-8, sequence (Q06710 whole entry): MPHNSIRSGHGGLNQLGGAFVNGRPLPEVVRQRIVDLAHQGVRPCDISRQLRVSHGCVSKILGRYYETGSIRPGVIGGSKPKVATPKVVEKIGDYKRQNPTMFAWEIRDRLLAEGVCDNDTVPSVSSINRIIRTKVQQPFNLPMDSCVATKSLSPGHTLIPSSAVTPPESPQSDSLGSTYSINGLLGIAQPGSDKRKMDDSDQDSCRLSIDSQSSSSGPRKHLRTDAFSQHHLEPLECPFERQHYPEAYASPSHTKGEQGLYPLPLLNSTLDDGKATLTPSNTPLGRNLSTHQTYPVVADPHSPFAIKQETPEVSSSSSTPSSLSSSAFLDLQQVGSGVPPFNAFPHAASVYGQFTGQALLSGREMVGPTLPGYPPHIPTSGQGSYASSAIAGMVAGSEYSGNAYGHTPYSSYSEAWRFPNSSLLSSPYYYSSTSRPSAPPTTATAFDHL
Alkaline phosphatase, placental type, sequence (P05187 whole entry): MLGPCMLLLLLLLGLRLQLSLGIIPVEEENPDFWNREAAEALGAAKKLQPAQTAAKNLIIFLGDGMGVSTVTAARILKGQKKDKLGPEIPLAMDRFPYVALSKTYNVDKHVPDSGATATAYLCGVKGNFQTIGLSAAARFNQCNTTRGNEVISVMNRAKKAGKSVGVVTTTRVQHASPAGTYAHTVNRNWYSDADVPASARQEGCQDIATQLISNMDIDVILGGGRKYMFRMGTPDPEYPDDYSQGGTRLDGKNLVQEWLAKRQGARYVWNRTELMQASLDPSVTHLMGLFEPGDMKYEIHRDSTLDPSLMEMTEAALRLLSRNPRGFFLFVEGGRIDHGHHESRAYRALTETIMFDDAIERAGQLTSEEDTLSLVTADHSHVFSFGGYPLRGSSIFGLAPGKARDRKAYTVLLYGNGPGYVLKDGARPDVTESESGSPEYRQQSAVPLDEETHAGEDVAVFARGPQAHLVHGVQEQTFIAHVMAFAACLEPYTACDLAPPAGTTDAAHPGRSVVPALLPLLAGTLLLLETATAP

In the case of `COc1ccc(CC2=CC(=O)c3ccccc3C2=O)cc1`, the AC50 in assay [1] is 10.2 µM (active). On to `Oc1cc(-c2cccc3ccccc23)[nH]n1`, for which the results for the IC50 (in assay [2]; on Procathepsin L) were > 10 µM (inactive) and > 59.6 µM (not active), respectively. As to `O=C(Nc1cccc(NC(=O)c2ccccc2Cl)c1)c1ccc([N+](=O)[O-])o1`, the EC50 in assay [3] was 8.12 µM (active). Further, the AC50 at Paired box protein Pax-8 is 2.48 µM (active). For the molecule `Cn1c(O)c(/C=N/NC(=O)c2cc3ccccc3cc2O)c2ccccc21`, in assay [4], the concentration giving a half-maximal response (EC50) was 5.96 µM (active).
